Test results reported in PubChem BioAssay AID1918994 (Molecular Pharmacology Branch, DTP, NCI, 2023).

Tested on: 292921-168-R-J2-PDC complex spheroid growth
Assay: Anticancer human tumor 292921-168-R-J2-PDC patient-derived pancreatic carcinoma cell line growth inhibition [AhR]
Conditions: curve of first compound; second compound 0.1 µM
Procedure, shortened: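 Spheroids combined tumor cells with HUVEC endothelial cells and human MSCs as stroma. AhR antagonists were paired with standard or investigational drugs, each dosed in half-log steps down from near clinical Cmax, or from 10 microM where Cmax was unknown.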
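Further: spheroids exposed to compounds for seven days after three days of growth.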

Compared with `CC(C)CC(NC(=O)C(Cc1ccccc1)NC(=O)c1cnccn1)B(O)O` (configuration not stated) + Cc1cncc(-c2nc(NCCc3c[nH]c4ccccc34)c3ncn(C(C)C)c3n2)c1, `Nc1ccccc1NC(=O)c1ccc(CNC(=O)OCc2cccnc2)cc1` + Cc1cncc(-c2nc(NCCc3c[nH]c4ccccc34)c3ncn(C(C)C)c3n2)c1 is 36-fold higher in IC50: 0.00977 µM for the first, 0.351 µM for the second. The first is the more potent here.

`CCc1c2c(nc3ccc(O)cc13)-c1cc3c(c(=O)n1C2)COC(=O)[C@]3(O)CC` + Cc1cncc(-c2nc(NCCc3c[nH]c4ccccc34)c3ncn(C(C)C)c3n2)c1 and `COc1cc(Nc2ncc3c(n2)-c2ccc(Cl)cc2C(c2c(F)cccc2OC)=NC3)ccc1C(=O)O` + Cc1cncc(-c2nc(NCCc3c[nH]c4ccccc34)c3ncn(C(C)C)c3n2)c1 cannot be ordered by IC50: 0.00291 µM for the first, under 0.0316 µM for the second.

First: O=C(C=Cc1cccc(S(=O)(=O)Nc2ccccc2)c1)NO + Cc1cncc(-c2nc(NCCc3c[nH]c4ccccc34)c3ncn(C(C)C)c3n2)c1
Second: O=C(c1cc(Cc2n[nH]c(=O)c3ccccc23)ccc1F)N1CCN(C(=O)C2CC2)CC1 + Cc1cncc(-c2nc(NCCc3c[nH]c4ccccc34)c3ncn(C(C)C)c3n2)c1
The IC50 of the first is lower: 0.374 µM for the first, over 10 µM for the second. The first is the more potent here.

Same assay, conditions: curve of first compound; second compound 0.316 µM

Compared with `CC(C)CC(NC(=O)C(Cc1ccccc1)NC(=O)c1cnccn1)B(O)O` (configuration not stated) + Cc1cncc(-c2nc(NCCc3c[nH]c4ccccc34)c3ncn(C(C)C)c3n2)c1, `Nc1ccccc1NC(=O)c1ccc(CNC(=O)OCc2cccnc2)cc1` + Cc1cncc(-c2nc(NCCc3c[nH]c4ccccc34)c3ncn(C(C)C)c3n2)c1 is 25-fold higher in IC50: 0.00981 µM for the first, 0.242 µM for the second.

`CCc1c2c(nc3ccc(O)cc13)-c1cc3c(c(=O)n1C2)COC(=O)[C@]3(O)CC` + Cc1cncc(-c2nc(NCCc3c[nH]c4ccccc34)c3ncn(C(C)C)c3n2)c1 and `COc1cc(Nc2ncc3c(n2)-c2ccc(Cl)cc2C(c2c(F)cccc2OC)=NC3)ccc1C(=O)O` + Cc1cncc(-c2nc(NCCc3c[nH]c4ccccc34)c3ncn(C(C)C)c3n2)c1 cannot be ordered by IC50: 0.00289 µM for the first, under 0.0316 µM for the second.

First: O=C(C=Cc1cccc(S(=O)(=O)Nc2ccccc2)c1)NO + Cc1cncc(-c2nc(NCCc3c[nH]c4ccccc34)c3ncn(C(C)C)c3n2)c1
Second: O=C(c1cc(Cc2n[nH]c(=O)c3ccccc23)ccc1F)N1CCN(C(=O)C2CC2)CC1 + Cc1cncc(-c2nc(NCCc3c[nH]c4ccccc34)c3ncn(C(C)C)c3n2)c1
The IC50 of the first is lower: 0.46 µM for the first, over 10 µM for the second.

Same assay, conditions: curve of first compound; second compound 1 µM

First: CC(C)CC(NC(=O)C(Cc1ccccc1)NC(=O)c1cnccn1)B(O)O (configuration not stated) + Cc1cncc(-c2nc(NCCc3c[nH]c4ccccc34)c3ncn(C(C)C)c3n2)c1
Second: Nc1ccccc1NC(=O)c1ccc(CNC(=O)OCc2cccnc2)cc1 + Cc1cncc(-c2nc(NCCc3c[nH]c4ccccc34)c3ncn(C(C)C)c3n2)c1
The IC50 of the first is 27-fold lower: 0.00914 µM for the first, 0.251 µM for the second. The first is the more potent here.

`CCc1c2c(nc3ccc(O)cc13)-c1cc3c(c(=O)n1C2)COC(=O)[C@]3(O)CC` + Cc1cncc(-c2nc(NCCc3c[nH]c4ccccc34)c3ncn(C(C)C)c3n2)c1 and `COc1cc(Nc2ncc3c(n2)-c2ccc(Cl)cc2C(c2c(F)cccc2OC)=NC3)ccc1C(=O)O` + Cc1cncc(-c2nc(NCCc3c[nH]c4ccccc34)c3ncn(C(C)C)c3n2)c1 cannot be ordered by IC50: 0.00192 µM for the first, under 0.0316 µM for the second.

First: O=C(C=Cc1cccc(S(=O)(=O)Nc2ccccc2)c1)NO + Cc1cncc(-c2nc(NCCc3c[nH]c4ccccc34)c3ncn(C(C)C)c3n2)c1
Second: O=C(c1cc(Cc2n[nH]c(=O)c3ccccc23)ccc1F)N1CCN(C(=O)C2CC2)CC1 + Cc1cncc(-c2nc(NCCc3c[nH]c4ccccc34)c3ncn(C(C)C)c3n2)c1
The IC50 of the first is lower: 0.28 µM for the first, over 10 µM for the second.

Same assay, conditions: curve of first compound; second compound 3.16 µM

`CC(C)CC(NC(=O)C(Cc1ccccc1)NC(=O)c1cnccn1)B(O)O` (configuration not stated) + Cc1cncc(-c2nc(NCCc3c[nH]c4ccccc34)c3ncn(C(C)C)c3n2)c1 and `Nc1ccccc1NC(=O)c1ccc(CNC(=O)OCc2cccnc2)cc1` + Cc1cncc(-c2nc(NCCc3c[nH]c4ccccc34)c3ncn(C(C)C)c3n2)c1 cannot be ordered by IC50: 0.00672 µM for the first, under 0.0316 µM for the second.

`CCc1c2c(nc3ccc(O)cc13)-c1cc3c(c(=O)n1C2)COC(=O)[C@]3(O)CC` + Cc1cncc(-c2nc(NCCc3c[nH]c4ccccc34)c3ncn(C(C)C)c3n2)c1 and `COc1cc(Nc2ncc3c(n2)-c2ccc(Cl)cc2C(c2c(F)cccc2OC)=NC3)ccc1C(=O)O` + Cc1cncc(-c2nc(NCCc3c[nH]c4ccccc34)c3ncn(C(C)C)c3n2)c1 cannot be ordered by IC50: under 0.000949 µM for the first, under 0.0316 µM for the second.

Going from `O=C(C=Cc1cccc(S(=O)(=O)Nc2ccccc2)c1)NO` + Cc1cncc(-c2nc(NCCc3c[nH]c4ccccc34)c3ncn(C(C)C)c3n2)c1 to `O=C(c1cc(Cc2n[nH]c(=O)c3ccccc23)ccc1F)N1CCN(C(=O)C2CC2)CC1` + Cc1cncc(-c2nc(NCCc3c[nH]c4ccccc34)c3ncn(C(C)C)c3n2)c1, the IC50 rises from under 0.0316 µM to over 10 µM. The first is the more potent here.

Same assay, conditions: curve of first compound; second compound 10 µM

`CC(C)CC(NC(=O)C(Cc1ccccc1)NC(=O)c1cnccn1)B(O)O` (configuration not stated) + Cc1cncc(-c2nc(NCCc3c[nH]c4ccccc34)c3ncn(C(C)C)c3n2)c1 and `Nc1ccccc1NC(=O)c1ccc(CNC(=O)OCc2cccnc2)cc1` + Cc1cncc(-c2nc(NCCc3c[nH]c4ccccc34)c3ncn(C(C)C)c3n2)c1 cannot be ordered by IC50: under 0.000949 µM for the first, under 0.0316 µM for the second.

`CCc1c2c(nc3ccc(O)cc13)-c1cc3c(c(=O)n1C2)COC(=O)[C@]3(O)CC` + Cc1cncc(-c2nc(NCCc3c[nH]c4ccccc34)c3ncn(C(C)C)c3n2)c1 and `COc1cc(Nc2ncc3c(n2)-c2ccc(Cl)cc2C(c2c(F)cccc2OC)=NC3)ccc1C(=O)O` + Cc1cncc(-c2nc(NCCc3c[nH]c4ccccc34)c3ncn(C(C)C)c3n2)c1 cannot be ordered by IC50: under 0.000949 µM for the first, under 0.0316 µM for the second.

`O=C(C=Cc1cccc(S(=O)(=O)Nc2ccccc2)c1)NO` + Cc1cncc(-c2nc(NCCc3c[nH]c4ccccc34)c3ncn(C(C)C)c3n2)c1 and `O=C(c1cc(Cc2n[nH]c(=O)c3ccccc23)ccc1F)N1CCN(C(=O)C2CC2)CC1` + Cc1cncc(-c2nc(NCCc3c[nH]c4ccccc34)c3ncn(C(C)C)c3n2)c1 cannot be ordered by IC50: under 0.0316 µM for the first, under 0.0316 µM for the second.

Same assay, conditions: second compound 0.1 µM; first compound 0.000949 µM; stronger effect = lower value

Going from `CC(C)CC(NC(=O)C(Cc1ccccc1)NC(=O)c1cnccn1)B(O)O` (configuration not stated) + Cc1cncc(-c2nc(NCCc3c[nH]c4ccccc34)c3ncn(C(C)C)c3n2)c1 to `CCc1c2c(nc3ccc(O)cc13)-c1cc3c(c(=O)n1C2)COC(=O)[C@]3(O)CC` + Cc1cncc(-c2nc(NCCc3c[nH]c4ccccc34)c3ncn(C(C)C)c3n2)c1, the viability, T/C falls from 92.8% to 62.5%.

Same assay, conditions: second compound 0.1 µM; first compound 0.003 µM; stronger effect = lower value

First: CC(C)CC(NC(=O)C(Cc1ccccc1)NC(=O)c1cnccn1)B(O)O (configuration not stated) + Cc1cncc(-c2nc(NCCc3c[nH]c4ccccc34)c3ncn(C(C)C)c3n2)c1
Second: CCc1c2c(nc3ccc(O)cc13)-c1cc3c(c(=O)n1C2)COC(=O)[C@]3(O)CC + Cc1cncc(-c2nc(NCCc3c[nH]c4ccccc34)c3ncn(C(C)C)c3n2)c1
The viability, T/C of the first is higher: 109% for the first, 50.5% for the second.

Same assay, conditions: second compound 0.1 µM; first compound 0.00949 µM; stronger effect = lower value

First: CC(C)CC(NC(=O)C(Cc1ccccc1)NC(=O)c1cnccn1)B(O)O (configuration not stated) + Cc1cncc(-c2nc(NCCc3c[nH]c4ccccc34)c3ncn(C(C)C)c3n2)c1
Second: CCc1c2c(nc3ccc(O)cc13)-c1cc3c(c(=O)n1C2)COC(=O)[C@]3(O)CC + Cc1cncc(-c2nc(NCCc3c[nH]c4ccccc34)c3ncn(C(C)C)c3n2)c1
The viability, T/C of the first is higher: 51.3% for the first, 22.7% for the second.

Same assay, conditions: second compound 0.1 µM; first compound 0.03 µM; stronger effect = lower value

Compared with `CC(C)CC(NC(=O)C(Cc1ccccc1)NC(=O)c1cnccn1)B(O)O` (configuration not stated) + Cc1cncc(-c2nc(NCCc3c[nH]c4ccccc34)c3ncn(C(C)C)c3n2)c1, `CCc1c2c(nc3ccc(O)cc13)-c1cc3c(c(=O)n1C2)COC(=O)[C@]3(O)CC` + Cc1cncc(-c2nc(NCCc3c[nH]c4ccccc34)c3ncn(C(C)C)c3n2)c1 is higher in viability, T/C: 3.12% for the first, 11.1% for the second.

Same assay, conditions: second compound 0.1 µM; first compound 0.0316 µM; stronger effect = lower value

Compared with `COc1cc(Nc2ncc3c(n2)-c2ccc(Cl)cc2C(c2c(F)cccc2OC)=NC3)ccc1C(=O)O` + Cc1cncc(-c2nc(NCCc3c[nH]c4ccccc34)c3ncn(C(C)C)c3n2)c1, `Nc1ccccc1NC(=O)c1ccc(CNC(=O)OCc2cccnc2)cc1` + Cc1cncc(-c2nc(NCCc3c[nH]c4ccccc34)c3ncn(C(C)C)c3n2)c1 is higher in viability, T/C: 50.6% for the first, 75.2% for the second.

Compared with `O=C(C=Cc1cccc(S(=O)(=O)Nc2ccccc2)c1)NO` + Cc1cncc(-c2nc(NCCc3c[nH]c4ccccc34)c3ncn(C(C)C)c3n2)c1, `O=C(c1cc(Cc2n[nH]c(=O)c3ccccc23)ccc1F)N1CCN(C(=O)C2CC2)CC1` + Cc1cncc(-c2nc(NCCc3c[nH]c4ccccc34)c3ncn(C(C)C)c3n2)c1 is higher in viability, T/C: 76% for the first, 88.1% for the second.

Same assay, conditions: second compound 0.1 µM; first compound 0.0949 µM; stronger effect = lower value

First: CC(C)CC(NC(=O)C(Cc1ccccc1)NC(=O)c1cnccn1)B(O)O (configuration not stated) + Cc1cncc(-c2nc(NCCc3c[nH]c4ccccc34)c3ncn(C(C)C)c3n2)c1
Second: CCc1c2c(nc3ccc(O)cc13)-c1cc3c(c(=O)n1C2)COC(=O)[C@]3(O)CC + Cc1cncc(-c2nc(NCCc3c[nH]c4ccccc34)c3ncn(C(C)C)c3n2)c1
The viability, T/C of the first is lower: 0.7% for the first, 5.94% for the second.

Same assay, conditions: second compound 0.1 µM; first compound 0.1 µM; stronger effect = lower value

First: COc1cc(Nc2ncc3c(n2)-c2ccc(Cl)cc2C(c2c(F)cccc2OC)=NC3)ccc1C(=O)O + Cc1cncc(-c2nc(NCCc3c[nH]c4ccccc34)c3ncn(C(C)C)c3n2)c1
Second: Nc1ccccc1NC(=O)c1ccc(CNC(=O)OCc2cccnc2)cc1 + Cc1cncc(-c2nc(NCCc3c[nH]c4ccccc34)c3ncn(C(C)C)c3n2)c1
The viability, T/C of the first is lower: 45% for the first, 63.8% for the second.

First: O=C(C=Cc1cccc(S(=O)(=O)Nc2ccccc2)c1)NO + Cc1cncc(-c2nc(NCCc3c[nH]c4ccccc34)c3ncn(C(C)C)c3n2)c1
Second: O=C(c1cc(Cc2n[nH]c(=O)c3ccccc23)ccc1F)N1CCN(C(=O)C2CC2)CC1 + Cc1cncc(-c2nc(NCCc3c[nH]c4ccccc34)c3ncn(C(C)C)c3n2)c1
The viability, T/C of the first is lower: 59.6% for the first, 94.8% for the second.

Same assay, conditions: second compound 0.1 µM; first compound 0.3 µM; stronger effect = lower value

Going from `CC(C)CC(NC(=O)C(Cc1ccccc1)NC(=O)c1cnccn1)B(O)O` (configuration not stated) + Cc1cncc(-c2nc(NCCc3c[nH]c4ccccc34)c3ncn(C(C)C)c3n2)c1 to `CCc1c2c(nc3ccc(O)cc13)-c1cc3c(c(=O)n1C2)COC(=O)[C@]3(O)CC` + Cc1cncc(-c2nc(NCCc3c[nH]c4ccccc34)c3ncn(C(C)C)c3n2)c1, the viability, T/C rises from 0.59% to 3.28%.

Same assay, conditions: second compound 0.1 µM; first compound 0.316 µM; stronger effect = lower value

Compared with `COc1cc(Nc2ncc3c(n2)-c2ccc(Cl)cc2C(c2c(F)cccc2OC)=NC3)ccc1C(=O)O` + Cc1cncc(-c2nc(NCCc3c[nH]c4ccccc34)c3ncn(C(C)C)c3n2)c1, `Nc1ccccc1NC(=O)c1ccc(CNC(=O)OCc2cccnc2)cc1` + Cc1cncc(-c2nc(NCCc3c[nH]c4ccccc34)c3ncn(C(C)C)c3n2)c1 is lower in viability, T/C: 50% for the first, 48.1% for the second.
